This is an account of results in patent publication US9446130B2, “BTK inhibitors” (MERCK SHARP & DOHME CORP., priority 2013, dated 2016).

The structures appear in SMILES notation.

Chain of BTK enzyme (hBTK, full-length recombinant) (Q06187 whole entry): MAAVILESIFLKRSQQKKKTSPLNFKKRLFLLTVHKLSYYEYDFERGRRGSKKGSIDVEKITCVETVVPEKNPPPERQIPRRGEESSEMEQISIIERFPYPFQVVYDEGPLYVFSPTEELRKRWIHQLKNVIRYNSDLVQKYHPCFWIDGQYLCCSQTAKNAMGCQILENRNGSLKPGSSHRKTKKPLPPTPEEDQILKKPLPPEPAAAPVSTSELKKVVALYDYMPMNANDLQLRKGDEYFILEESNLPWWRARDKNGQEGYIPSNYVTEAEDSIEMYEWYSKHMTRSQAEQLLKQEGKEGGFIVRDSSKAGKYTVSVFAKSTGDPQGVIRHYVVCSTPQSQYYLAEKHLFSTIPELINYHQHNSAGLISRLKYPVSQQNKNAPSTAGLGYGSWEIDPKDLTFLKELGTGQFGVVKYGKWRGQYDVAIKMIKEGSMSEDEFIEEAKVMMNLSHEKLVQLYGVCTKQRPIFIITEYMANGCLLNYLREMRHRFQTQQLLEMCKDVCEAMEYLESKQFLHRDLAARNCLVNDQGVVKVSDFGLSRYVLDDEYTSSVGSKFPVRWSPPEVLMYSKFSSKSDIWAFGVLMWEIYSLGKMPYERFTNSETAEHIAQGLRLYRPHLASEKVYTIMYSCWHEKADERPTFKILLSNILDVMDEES

For this assay, the target named is BTK enzyme (hBTK, full-length recombinant) (Homo sapiens (Human), UniProt Q06187). The assay can be described thus: Btk enzyme activity assay, Method B: LANCE TR-FRET. It is filed as biochemical. Particulars: 25 μM ATP, 60 minute compound & enzyme incubation. As for the experimental part:
Also BTK enzymatic activity was determined with the LANCE (Lanthanide Chelate Excite) TR-FRET (Time-resolved fluorescence resonance energy transfer) assay. […] The final reaction in each well of 10 μL consists of 100 pM hBTK, 2 μM biotin-A5-peptide, and 25 μM ATP. Phosphorylation reactions were allowed to proceed for 120 minutes. […] After 60 minutes incubation with detection reagents, reaction plates were read on a PerkinElmer EnVision plate reader using standard TR-FRET protocol. Briefly, excitation of donor molecules (Eu-chelate:anti-phospho-antibody) with a laser light source at 337 nm produces energy that can be transferred to Dylight-650 acceptor molecules if this donor:acceptor pair is within close proximity. Fluorescence intensity at both 665 nm (acceptor) and 615 nm (donor) are measured and a TR-FRET ratio calculated for each well (acceptor intensity/donor intensity). IC50 values were determined by 4 parameter robust fit of TR-FRET ratio values vs. (Log10) compound concentrations. BTK enzymatic activity was determined with the LANCE (Lanthanide Chelate Excite) TR-FRET (Time-resolved fluorescence resonance energy transfer) assay. […] The final reaction in each well of 10 μL consists of 50 pM hBTK, 2 μM biotin-A5-peptide, and 25 μM ATP. Phosphorylation reactions were allowed to proceed for 120 minutes. […] After 60 minutes incubation with detection reagents, reaction plates were read on a PerkinElmer EnVision plate reader using standard TR-FRET protocol. Briefly, excitation of donor molecules (Eu-chelate:anti-phospho-antibody) with a laser light source at 337 nm produces energy that can be transferred to Dylight-650 acceptor molecules if this donor:acceptor pair is within close proximity. Fluorescence intensity at both 665 nm (acceptor) and 615 nm (donor) are measured and a TR-FRET ratio calculated for each well (acceptor intensity/donor intensity). IC50 values were determined by 4 parameter robust fit of TR-FRET ratio values vs. (Log10) compound concentrations.
The term IC50 denotes the point on the concentration scale where inhibition reaches its midpoint. Turning to `Cn1ncc2c1CCC[C@@]2(O)c1nc(-c2ccc(C(=O)Nc3cc(C(F)(F)F)ccn3)cc2)c2c(N)nccn12` [Example 2, (S)-4-(8-amino-3-(4-hydroxy-1-methyl-4,5,6,7-tetrahydro-1H-indazol-4-yl)imidazo[1,5-a]pyrazin-1-yl)-N-(4-(trifluoromethyl)pyridin-2-yl)benzamide], the IC50 stood at 0.33 nM.

For `Cn1ncc2c1CCC[C@]2(O)c1nc(-c2ccc(C(=O)Nc3cc(C(F)(F)F)ccn3)cc2)c2c(N)nccn12` [Example 3, (R)-4-(8-amino-3-(4-hydroxy-1-methyl-4,5,6,7-tetrahydro-1H-indazol-4-yl)imidazo[1,5-a]pyrazin-1-yl)-N-(4-(trifluoromethyl)pyridin-2-yl)benzamide], the IC50 worked out at 2 nM.

As for `Nc1ncnc2c1c(-c1ccc(C(=O)Nc3cc(C(F)(F)F)ccn3)cc1)nn2[C@@H]1CCCc2[nH]ncc21` [Example 5, (R)-4-(4-amino-1-(4,5,6,7-tetrahydro-1H-indazol-4-yl)-1H-pyrazolo[3,4-d]pyrimidin-3-yl)-N-(4-(trifluoromethyl)pyridin-2-yl)benzamide], the concentration for half-maximal inhibition (IC50) was 0.52 nM.

Take `Nc1ncnc2c1c(-c1ccc(C(=O)Nc3cc(C(F)(F)F)ccn3)cc1)nn2[C@H]1CCCc2[nH]ncc21` [Example 6, (S)-4-(4-amino-1-(4,5,6,7-tetrahydro-1H-indazol-4-yl)-1H-pyrazolo[3,4-d]pyrimidin-3-yl)-N-(4-(trifluoromethyl)pyridin-2-yl)benzamide]: the IC50 is 60 nM.

As to `Cn1ncc2c1CCC[C@H]2n1nc(-c2ccc(C(=O)Nc3cc(C(F)(F)F)ccn3)cc2)c2c(N)ncnc21` [Example 7, (R)-4-(4-amino-1-(1-methyl-4,5,6,7-tetrahydro-1H-indazol-4-yl)-1H-pyrazolo[3,4-d]pyrimidin-3-yl)-N-(4-(trifluoromethyl)pyridin-2-yl)benzamide], the IC50 was 5.9 nM.

In the case of `Cn1cc2c(n1)CCC[C@H]2n1nc(-c2ccc(C(=O)Nc3cc(C(F)(F)F)ccn3)cc2)c2c(N)ncnc21` [Example 8, (R)-4-(4-amino-1-(2-methyl-4,5,6,7-tetrahydro-2H-indazol-4-yl)-1H-pyrazolo[3,4-d]pyrimidin-3-yl)-N-(4-(trifluoromethyl)pyridin-2-yl)benzamide], the IC50 amounted to 3.2 nM.

Turning to `Cn1cc2c(n1)CCC[C@@H]2n1nc(-c2ccc(C(=O)Nc3cc(C(F)(F)F)ccn3)cc2)c2c(N)ncnc21` [Example 10, (S)-4-(4-amino-1-(2-methyl-4,5,6,7-tetrahydro-2H-indazol-4-yl)-1H-pyrazolo[3,4-d]pyrimidin-3-yl)-N-(4-(trifluoromethyl)pyridin-2-yl)benzamide], the IC50 came to 83 nM.

Turning to `CCn1ncc2c1CCC[C@H]2n1nc(-c2ccc(C(=O)Nc3cc(C(F)(F)F)ccn3)cc2)c2c(N)ncnc21` [Example 11, (R)-4-(4-amino-1-(1-ethyl-4,5,6,7-tetrahydro-1H-indazol-4-yl)-1H-pyrazolo[3,4-d]pyrimidin-3-yl)-N-(4-(trifluoromethyl)pyridin-2-yl)benzamide], the IC50 was found to be 3.2 nM.

Turning to `CCn1cc2c(n1)CCC[C@H]2n1nc(-c2ccc(C(=O)Nc3cc(C(F)(F)F)ccn3)cc2)c2c(N)ncnc21` [Example 12, (R)-4-(4-amino-1-(2-ethyl-4,5,6,7-tetrahydro-2H-indazol-4-yl)-1H-pyrazolo[3,4-d]pyrimidin-3-yl)-N-(4-(trifluoromethyl)pyridin-2-yl)benzamide], the IC50 turned out to be 13 nM.

On to `CCn1ncc2c1CCC[C@@H]2n1nc(-c2ccc(C(=O)Nc3cc(C(F)(F)F)ccn3)cc2)c2c(N)ncnc21` [Example 13, (S)-4-(4-amino-1-(1-ethyl-4,5,6,7-tetrahydro-1H-indazol-4-yl)-1H-pyrazolo[3,4-d]pyrimidin-3-yl)-N-(4-(trifluoromethyl)pyridin-2-yl)benzamide], for which the IC50 amounted to 5.9 nM.

Regarding `CCn1cc2c(n1)CCC[C@@H]2n1nc(-c2ccc(C(=O)Nc3cc(C(F)(F)F)ccn3)cc2)c2c(N)ncnc21` [Example 14, (S)-4-(4-amino-1-(2-ethyl-4,5,6,7-tetrahydro-2H-indazol-4-yl)-1H-pyrazolo[3,4-d]pyrimidin-3-yl)-N-(4-(trifluoromethyl)pyridin-2-yl)benzamide], the IC50 came to 54 nM.

On to `Nc1ncnc2c1c(-c1ccc(C(=O)Nc3cc(C(F)(F)F)ccn3)cc1)nn2[C@@H]1CCCc2c1cnn2CCO` [Example 15, (R)-4-(4-amino-1-(1-(2-hydroxyethyl)-4,5,6,7-tetrahydro-1H-indazol-4-yl)-1H-pyrazolo[3,4-d]pyrimidin-3-yl)-N-(4-(trifluoromethyl)pyridin-2-yl)benzamide], for which the IC50 was determined as 1.1 nM.

As to `Nc1ncnc2c1c(-c1ccc(C(=O)Nc3cc(C(F)(F)F)ccn3)cc1)nn2[C@@H]1CCCc2nn(CCO)cc21` [Example 16, (R)-4-(4-amino-1-(2-(2-hydroxyethyl)-4,5,6,7-tetrahydro-2H-indazol-4-yl)-1H-pyrazolo[3,4-d]pyrimidin-3-yl)-N-(4-(trifluoromethyl)pyridin-2-yl)benzamide], the IC50 is 0.45 nM.

In the case of `Nc1ncnc2c1c(-c1ccc(C(=O)Nc3cc(C(F)(F)F)ccn3)cc1)nn2[C@H]1CCCc2c1cnn2CCO` [Example 17, (S)-4-(4-amino-1-(1-(2-hydroxyethyl)-4,5,6,7-tetrahydro-1H-indazol-4-yl)-1H-pyrazolo[3,4-d]pyrimidin-3-yl)-N-(4-(trifluoromethyl)pyridin-2-yl)benzamide], the IC50 worked out at 2.1 nM.

Take `Nc1ncnc2c1c(-c1ccc(C(=O)Nc3cc(C(F)(F)F)ccn3)cc1)nn2[C@H]1CCCc2nn(CCO)cc21` [Example 18, (S)-4-(4-amino-1-(2-(2-hydroxyethyl)-4,5,6,7-tetrahydro-2H-indazol-4-yl)-1H-pyrazolo[3,4-d]pyrimidin-3-yl)-N-(4-(trifluoromethyl)pyridin-2-yl)benzamide]: the IC50 is 1.3 nM.

For `Nc1nccn2c([C@@H]3CCCn4c(C5CC5)nnc43)nc(-c3ccc(C(=O)Nc4cc(C(F)(F)F)ccn4)cc3)c12` [Example 19, (S)-4-(8-amino-3-(3-cyclopropyl-5,6,7,8-tetrahydro-[1,2,4]triazolo[4,3-a]pyridin-8-yl)imidazo[1,5-a]pyrazin-1-yl)-N-(4-(trifluoromethyl)pyridin-2-yl)benzamide], the IC50 was 67 nM.

On to `Nc1nccn2c([C@H]3CCCn4c(C5CC5)nnc43)nc(-c3ccc(C(=O)Nc4cc(C(F)(F)F)ccn4)cc3)c12` [Example 20, (R)-4-(8-amino-3-(3-cyclopropyl-5,6,7,8-tetrahydro-[1,2,4]triazolo[4,3-a]pyridin-8-yl)imidazo[1,5-a]pyrazin-1-yl)-N-(4-(trifluoromethyl)pyridin-2-yl)benzamide], for which the IC50 was 56 nM.

In the case of `Nc1nccn2c([C@H]3CCn4c(nnc4C(F)(F)F)C3)nc(-c3ccc(C(=O)Nc4cc(C(F)(F)F)ccn4)cc3)c12` [Example 21, (S)-4-(8-amino-3-(3-(trifluoromethyl)-5,6,7,8-tetrahydro-[1,2,4]triazolo[4,3-a]pyridin-7-yl)imidazo[1,5-a]pyrazin-1-yl)-N-(4-(trifluoromethyl)pyridin-2-yl)benzamide], the IC50 came out at 0.81 nM.

With `Nc1nccn2c([C@@H]3CCn4c(nnc4C(F)(F)F)C3)nc(-c3ccc(C(=O)Nc4cc(C(F)(F)F)ccn4)cc3)c12` [Example 22, (R)-4-(8-amino-3-(3-(trifluoromethyl)-5,6,7,8-tetrahydro-[1,2,4]triazolo[4,3-a]pyridin-7-yl)imidazo[1,5-a]pyrazin-1-yl)-N-(4-(trifluoromethyl)pyridin-2-yl)benzamide], the half-inhibitory concentration (IC50) is 11 nM.

For `Cn1ncc2c1CCC[C@H]2c1nc(-c2ccc(C(=O)Nc3cc(C(F)(F)F)ccn3)cc2)c2c(N)nccn12` [Example 23, (R)-4-(8-amino-3-(1-methyl-4,5,6,7-tetrahydro-1H-indazol-4-yl)imidazo[1,5-a]pyrazin-1-yl)-N-(4-(trifluoromethyl)pyridin-2-yl)benzamide], the IC50 turned out to be 1000 nM.

On to `Cn1ncc2c1CCC[C@@H]2c1nc(-c2ccc(C(=O)Nc3cc(C(F)(F)F)ccn3)cc2)c2c(N)nccn12` [Example 24, (S)-4-(8-amino-3-(1-methyl-4,5,6,7-tetrahydro-1H-indazol-4-yl)imidazo[1,5-a]pyrazin-1-yl)-N-(4-(trifluoromethyl)pyridin-2-yl)benzamide], for which the IC50 was found to be 740 nM.

Turning to `CC(C)Oc1ccnc(NC(=O)c2ccc(-c3nc(N4CCn5c(nnc5C(F)(F)F)C4)n4ccnc(N)c34)cc2)c1` [Example 25, 4-(8-amino-3-(3-(trifluoromethyl)-5,6-dihydro-[1,2,4]triazolo[4,3-a]pyrazin-7(8H)-yl)imidazo[1,5-a]pyrazin-1-yl)-N-(4-isopropoxypyridin-2-yl)benzamide], the IC50 came to 43 nM.
